Data from patent US20210205264A1, “USE OF DELTA-TOCOTRIENOL FOR TREATING CANCER” (H. LEE MOFFITT CANCER CENTER & RESEARCH INSTITUTE INC., priority 2018, published 2021).

Columns and labels:
human CCSCs = assay: Orthotopic (cecum) model of luciferase expressing human CCSCs in NOD-SCID mice; type: in vivo
Protocol: FIGS. 8A, 8B, 8C, and 8D show growth of cecal tumor volume (FIGS. 8A & 8B) and liver metastasis score (FIGS. 8C & 8D) in orthotopic model of CCSCs after treatment with vehicle, aspirin, d-T3, and aspirin+d-T3.
In vivo model of human CCSC were developed by implanting the stably transfected luciferase expressing CCSCs in the cecum of NOD-SCID mice. In this model, tumor growth, metastasis, and survival are monitored twice weekly by IP injection of luciferin (150 mg/kg body weight) and imaged using the IVIS 200 Bioluminescence imaging system. […] These findings strongly indicate that d-T3 targets CCSCs and enhances the ability of aspirin to target these cells.

[1] = design: species or system humans; settings: in vivo
Protocol: Two phase I dose-escalation studies were performed determining safety, pharmacokinetics, and pharmacodynamics after twice daily oral administration of d-T3 for 14 consecutive days before surgery in patients with resectable pancreatic exocrine neoplasia and in healthy individuals. […] Based on experience from clinical trials and in animal studies, a dose of 400 mg twice daily was selected for the trial. It should be noted that d-T3 concentration is several times higher in fatty tissues such as the pancreas and colon.

hCAS [2] = target: T1, hCAS (Homo sapiens, UniProt P55060); assay: hCAS protein levels in MiaPaCa-2 cells; type: cell-based
T1 construct: endogenous in cells; host or cells: MiaPaCa-2 human pancreatic cancer cells
T1 sequence (P55060 1-971): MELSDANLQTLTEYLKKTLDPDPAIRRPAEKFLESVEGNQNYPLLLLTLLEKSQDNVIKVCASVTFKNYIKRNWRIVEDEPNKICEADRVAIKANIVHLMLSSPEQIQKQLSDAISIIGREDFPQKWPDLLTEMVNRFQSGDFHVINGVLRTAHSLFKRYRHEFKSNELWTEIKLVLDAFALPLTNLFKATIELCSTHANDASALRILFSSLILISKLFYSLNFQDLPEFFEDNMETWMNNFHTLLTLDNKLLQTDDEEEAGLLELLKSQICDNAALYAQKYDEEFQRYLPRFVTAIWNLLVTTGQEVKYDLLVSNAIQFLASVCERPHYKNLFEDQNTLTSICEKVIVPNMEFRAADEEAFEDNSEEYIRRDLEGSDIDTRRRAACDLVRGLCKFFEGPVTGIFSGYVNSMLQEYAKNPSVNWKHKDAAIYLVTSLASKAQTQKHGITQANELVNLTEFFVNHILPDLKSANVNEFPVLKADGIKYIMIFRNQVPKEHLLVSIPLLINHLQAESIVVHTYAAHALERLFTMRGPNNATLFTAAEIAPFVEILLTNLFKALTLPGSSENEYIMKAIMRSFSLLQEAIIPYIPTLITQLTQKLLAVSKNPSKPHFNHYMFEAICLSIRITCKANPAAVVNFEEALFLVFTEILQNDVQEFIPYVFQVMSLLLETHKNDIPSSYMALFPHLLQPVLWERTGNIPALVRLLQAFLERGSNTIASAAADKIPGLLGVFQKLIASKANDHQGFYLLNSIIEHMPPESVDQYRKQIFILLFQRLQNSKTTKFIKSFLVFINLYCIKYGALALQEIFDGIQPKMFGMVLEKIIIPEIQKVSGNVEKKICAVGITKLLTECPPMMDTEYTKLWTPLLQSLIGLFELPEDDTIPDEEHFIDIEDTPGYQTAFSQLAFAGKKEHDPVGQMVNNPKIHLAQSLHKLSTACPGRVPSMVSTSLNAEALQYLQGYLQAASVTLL

NCM-460 = assay: Apoptosis induction in NCM-460; type: cell-based
[3] = test system: AOM induced rat colon cancer model; assay: AOM induced rat colon cancer model; type: in vivo, Fisher 344 rat
Text: FIGS. 3A, 3B, 3C and 3D show the number of polyps (FIG. 3A) and cancer (FIG. 3C) with H&E stain of representative areas of polyp (FIG. 3B) and cancer (FIG. 3D) following no treatment (NT), treatment with vehicle (V), sulindac, and d-T3 in AOM-induced Fisher 344 rat model of colon carcinogenesis.
To confirm the CRC prevention activity of d-T3, the activity of d-T3 was investigated and compared this with sulindac, another established NSAID with chemoprevention activity against CRC in the AOM induced rat colon cancer model.

HT-29 = assay: Apoptosis induction in HT-29; type: cell-based, human
HPNE cells = assay: Anchorage-independent growth / colony formation of HPNE cells over-expressing hCAS; type: cell-based; settings: d-T3 concentration escalation
β-catenin = β-catenin immunofluorescence and Western blot in CCSCs; type: cell-based, human
Text: FIGS. 9A, 9B, 9C, and 9D show quantification of β-catenin in the nucleus and cytoplasm of CCSCs with confocal microscopy (FIGS. 9A & 9B) after treatment with vehicle, aspirin, d-T3, and aspirin+d-T3.
As noted above, stability of the β-catenin complex by inactivation of APC leads to stabilization and nuclear translocation of β-catenin and to transcriptional activation of β-catenin target genes such as c-Myc and cyclin D1. […] Furthermore, d-T3 inhibition of CCSCs is associated with the downregulation of β-catenin, c-Myc, cyclin D1, and survivin as measured by Western blot in CCSCs (FIG. 9D).

hCAS [4] = target: T1, hCAS; assay: Streptavidin bead capture of hCAS from treated MiaPaCa-2 cells; type: binding; settings: derived from biotinylated probes
Protocol: To confirm that δ-T3 binds to hCAS in intact cells, biotinylated δ-T3 (B-δ-T3) was prepared by chemically coupling the —OH group of δ-T3 to the —COOH of biotin using a PEG-iodoactamide linker (FIG. 18).
MiaPaCa-2 human pancreatic cancer cells were treated for 24 hours with biotin alone (B), B-δ-T3 or B-TOCOPH. The cells were then lysed, and the lysates incubated with streptavidin beads, and the captured proteins processed for Western blotting.

For `CC(C)=CCC/C(C)=C/CC/C(C)=C/CC[C@]1(C)CCc2cc(O)cc(C)c2O1` [d-T3, δ-tocotrienol], the “growth of human CRC stem cells (cecal tumor)” value (human CCSCs) was “inhibited”, the “metastases of human CRC stem cells” value (human CCSCs; liver metastasis) was “inhibited” and the AUC ([1]; human, po) was ≤ 175 µM·h. The Cmax ([1]; human, po) was ≤ 17 µM, the half-life ([1]; human, po) was “approximately 4 hours” and the dose-limiting toxicities [1] was “no dose-limiting toxicities”. For the same molecule, the “time at which decrease of hCAS levels starts” value (hCAS [2]) was 6 h, the “time of maximum effect on hCAS levels” value (hCAS [2]) was 24 to 48 h and the hCAS levels (hCAS [2]; d-T3 50 uM) was “decreases the hCAS levels”. For the same molecule, the apoptosis (NCM-460) was “no effect”, the cancer formation [3] was “almost completely blocked” and the “formation of intestinal polyps” value [3] was “significantly inhibited”. For the same molecule, the apoptosis (HT-29) was “significantly induced apoptosis”, the “dose response on growth / colony formation” value (HPNE cells) was “potent dose-dependent effect” and the “dose response on growth / colony formation” value (HPNE cells; listed as δ-T3) was “robust dose-response”. For the same molecule, the “β-catenin, c-Myc, cyclin D1, and survivin by Western blot” value (β-catenin) was “downregulation”, the “amount of β-catenin translocated to the nucleus” value (β-catenin; immunofluorescence staining) was “significantly decreased” and the “binds hCAS in intact pancreatic cancer cells” value (hCAS [4]) was “binds hCAS”.
